Assay results taken from patent US9908893B2 (Latvian Institute of Organic Synthesis, priority 2013, dated 2018).

Experiments:
[1] = system: A7R5 (rat aorta smooth muscle) cells; assay: Intracellular Ca2+ measurements, Fluo-4 NW Calcium Assay Kit, KCl-induced [Ca2+]i increase; type: cell-based; settings: for IC50: Rattus norvegicus, A7R5, read-out: Ca^2+ A7R5, IC50; for Ca^2+ antagonist effect compared with Verapamil: relative to Verapamil, A7R5 cells
Method: Changes in intracellular [Ca^2+] concentration were studied using A7R5 (rat aorta smooth muscle) cells and Fluo-4 NW Calcium Assay Kit (“Invitrogen”, Sweden) according to manufacturer's instructions.
Changes in intracellular [Ca^2+]i concentration were studied using Fluo-4 NW Calcium Assay Kit (“Invitrogen”, Sweden) accordingly to manufacturer's instructions. The A7R5 (rat aorta smooth muscle) cells were grown at 37° C. in a humidified atmosphere with 5% CO2/95% air in DMEM medium containing 2 mM glutamine and supplemented with 10% FBS. The cells were seeded into 96 well plate at 10,000 cells/well and incubated for 72 h. The cells were loaded with […] for 45 min. The Fura-4NW loaded cells were pre-incubated in the dark for 15 minutes with tested compounds at concentrations from 0.8 to 100 μM. Then A7R5 cells were pre-treated with 1.5 mM CaCl2 for 5 minutes and KCl (50 mM) was added to A7R5 cells to induce [Ca^2+]i increase. Amlodipine, the well-known calcium channel inhibitor was used as the positive control.

[2] = Basal toxicity test, neutral red, alternative LD50 calculated from IC50; settings: mouse, LD50, alternative LD50 calculated by formula from IC50 in NIH 3T3 cells
Method: (§1) A low therapeutic index of chemotherapy agents is due to affecting not only cancer formation but also normal cells.
(§2) 9,000 NIH 3T3 cells/well were placed into 96-well plates for 24 h and then exposed to the test compound over a range of eight concentration (1-1000 μg/ml) for 24 h. Upon that, the cells were incubated with the neutral red dye for 4 h and then OD was determined at 540 nm. […] The IC50 values were calculated using the program Graph Pad Prism® 4.0

[3] = system: NIH 3T3 (normal mouse fibroblasts); assay: as above; settings: alternative LD50 calculated by formula from IC50 in NIH 3T3 cells, 24 h
Method: as §1, §2

SMILES | IC50 [1] [µM] | Ca^2+ antagonist effect compared with Verapamil [1] | LD50 at 24 h [2] [mg/kg] | LD50 [3] [mg/kg]
COC(=O)c1c(C)nc2sc(C(=O)c3ccc(OC)cc3)c(N)c2c1-c1ccc(OC)c(OC)c1 [Compound 6, 3-Amino-4-(3,4-dimethoxyphenyl)-2-(4-methoxybenzoyl)-6-methyl-thieno[2,3-b]-pyridine-5-carboxylic acid methyl ester] | 6 ± 0.8 | more than ten times lower | > 2000 | 2808
CCOC(=O)c1c(C)nc2sc(C(=O)c3ccc(OC)cc3)c(N)c2c1-c1cc(OC)c(OC)c(OC)c1 [Compound 24, 3-Amino-2-(4-methoxybenzoyl)-6-methyl-4-(3,4,5-trimethoxyphenyl)thieno[2,3-b]-pyridine-5-carboxylic acid ethyl ester] | 19 ± 3 | more than ten times lower | > 2000 | >2000
CCOC(=O)c1c(C)nc2sc(C(=O)c3ccc(OC)cc3OC)c(N)c2c1-c1cc(OC)c(OC)c(OC)c1 [Compound 25, 3-Amino-2-(2,4-dimethoxybenzoyl)-6-methyl-4-(3,4,5-trimethoxyphenyl)-thieno[2,3-b]pyridine-5-carboxylic acid ethyl ester] | 46 ± 1.4 | more than ten times lower | > 2000 | >2000
